In US4459290A, “C-23-Modified derivatives of OMT, pharmaceutical compositions and method of use” (priority 1982, dated 1984):
Values after ≈ are worked out from the molar mass of the structure shown. Read-outs that look alike come from different tables or passages of the source.

Columns and labels:
[1] = system: these strains; assay: Activity against the strains of Table VI, agar-dilution; assay type: cell-based; details: at the levels tested
Protocol: (§1) Especially noteworthy is the improved activity against gram-negative bacteria for several derivatives when compared to the activity of OMT. […] The MIC's in Tables V and VI were determined by standard agar-dilution assays. The MIC's in Table VII were obtained using a conventional broth-dilution microtiter test.

[2] = system: Streptococcus pneumoniae Park I; assay: microbe, parasite or virus in culture; assay type: cell-based; details: Streptococcus pneumoniae; read-out: MIC
Protocol: as §1

[3] = system: Pasteurella multocida; assay: Protection of one-day-old chicks against Pasteurella multocida infection (Table IX); assay type: in vivo; details: subcutaneous 30 mg/kg × 2, 1 and 4 hours post-challenge
How it was run: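 One-day-old chicks were challenged subcutaneously with 0.1 ml of a twenty-hour tryptose broth culture of avian P. multocida. Compound was given subcutaneously at 30 mg/kg, 1 and 4 hours post-challenge, and protection against death was followed, with non-medicated infected chicks as controls.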

[4] = system: Pasteurella multocida 17E; assay: MIC, broth-dilution microtiter test (Table VII); assay type: cell-based; details: Pasteurella multocida; P. multocida 17E, bovine isolate; broth-dilution microtiter; read-out: MIC
How it was run: (§2)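 Each MIC derives from a dilution series, either on solid agar (Enterobacter aerogenes) or in liquid broth within microtiter plates (staphylococcal and Pasteurella strains).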

[5] = system: Pasteurella multocida 68C; assay: MIC, broth-dilution microtiter test (Table VII); assay type: cell-based; details: Pasteurella multocida; P. multocida 68C; broth-dilution microtiter; read-out: MIC
How it was run: as §2

[6] = system: Pasteurella hemolytica 41D; assay: MIC, broth-dilution microtiter test (Table VII); assay type: cell-based; details: Pasteurella, P. hemolytica 41D, read-out: MIC
How it was run: (§3)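 Conventional dilution MICs: agar for Enterobacter, microtiter broth for Staphylococcus and Pasteurella.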

[7] = system: Pasteurella multocida 40G; assay: MIC, broth-dilution microtiter test (Table VII); assay type: cell-based; details: Pasteurella multocida; P. multocida 40G; broth-dilution microtiter; read-out: MIC
How it was run: as §2

[8] = system: Mycoplasma gallisepticum; assay: MIC, broth-dilution microtiter test (Table VII); assay type: cell-based; details: Mycoplasmoides gallisepticum; M. gallisepticum; broth-dilution microtiter; read-out: MIC
Protocol: as §1

[9] = system: Pasteurella multocida 60A; assay: MIC, broth-dilution microtiter test (Table VII); assay type: cell-based; details: Pasteurella multocida; P. multocida 60A, avian isolate; broth-dilution microtiter; read-out: MIC
How it was run: as §2

[10] = system: Staphylococcus aureus; assay: MIC, broth-dilution microtiter test (Table VII); assay type: cell-based; details: Staphylococcus aureus; S. aureus; broth-dilution microtiter; read-out: MIC
How it was run: as §2

[11] = system: Pasteurella hemolytica 22C; assay: MIC, broth-dilution microtiter test (Table VII); assay type: cell-based; details: Pasteurella, P. hemolytica 22C, read-out: MIC
How it was run: as §3

[12] = system: Pasteurella multocida 22A; assay: MIC, broth-dilution microtiter test (Table VII); assay type: cell-based; details: Pasteurella multocida; P. multocida 22A; broth-dilution microtiter; read-out: MIC
How it was run: as §2

[13] = system: Streptococcus sp. 80; assay: MIC, broth-dilution microtiter test (Table VII); assay type: cell-based; details: Streptococcus sp. 80; broth-dilution microtiter; read-out: MIC
Protocol: as §1

[14] = system: Pasteurella hemolytica 23C; assay: MIC, broth-dilution microtiter test (Table VII); assay type: cell-based; details: Pasteurella, P. hemolytica 23C, read-out: MIC
How it was run: as §3

[15] = system: Mycoplasma hyorhinis; assay: MIC, broth-dilution microtiter test (Table VII); assay type: cell-based; details: M. hyorhinis; broth-dilution microtiter; read-out: MIC
Protocol: as §1

[16] = system: Mycoplasma synoviae; assay: MIC, broth-dilution microtiter test (Table VII); assay type: cell-based; details: Mycoplasmopsis synoviae; M. synoviae; broth-dilution microtiter; read-out: MIC
Protocol: as §1

[17] = system: Haemophilus influenzae R252; assay: MIC, standard agar-dilution assay (Table V); assay type: cell-based; details: Haemophilus influenzae, R252
Protocol: (§4) The MIC's in Tables V and VI were determined by standard agar-dilution assays. The MIC's in Table VII were obtained using a conventional broth-dilution microtiter test.

[18] = system: Haemophilus influenzae Holt; assay: MIC, standard agar-dilution assay (Table V); assay type: cell-based; details: Haemophilus influenzae
Protocol: as §4

[19] = system: Escherichia coli TEM; assay: MIC, standard agar-dilution assay (Table V); assay type: cell-based; details: Escherichia coli
Protocol: as §4

[20] = system: Streptococcus pyogenes C203; assay: MIC, standard agar-dilution assay (Table V); assay type: cell-based; details: Streptococcus pyogenes, C203
Protocol: as §4

[21] = system: Staphylococcus aureus X400; assay: MIC, standard agar-dilution assay (Table V); assay type: cell-based; details: Staphylococcus aureus; S. aureus X400, methicillin-resistant strain; agar dilution; read-out: MIC
Protocol: as §1

[22] = system: Escherichia coli EC14; assay: MIC, standard agar-dilution assay (Table V); assay type: cell-based; details: Escherichia coli; E. coli EC14; agar dilution; read-out: MIC
How it was run: (§5)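 Growth inhibition in liquid medium, in a routine microtiter broth-dilution series, gave the MIC against staphylococci and pasteurellae; the gram-negative enteric strain was tested by conventional agar dilution instead.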

[23] = system: Staphylococcus epidermidis EPI2; assay: MIC, standard agar-dilution assay (Table V); assay type: cell-based; details: Staphylococcus epidermidis; S. epidermidis EPI2; agar dilution; read-out: MIC
Protocol: as §1

[24] = system: Staphylococcus aureus S13E; assay: MIC, standard agar-dilution assay (Table V); assay type: cell-based; details: Staphylococcus aureus, S13E
Protocol: as §1

[25] = system: Shigella sonnei N9; assay: MIC, standard agar-dilution assay (Table V); assay type: cell-based
How it was run: as §5

[26] = system: Streptococcus Group D X66; assay: MIC, standard agar-dilution assay (Table V); assay type: cell-based; details: Streptococcus Group D X66; agar dilution; read-out: MIC
Protocol: as §1

[27] = system: Escherichia coli N10; assay: MIC, standard agar-dilution assay (Table V); assay type: cell-based; details: Escherichia coli; E. coli N10; agar dilution; read-out: MIC
How it was run: as §5

[28] = system: Staphylococcus epidermidis EPI1; assay: MIC, standard agar-dilution assay (Table V); assay type: cell-based; details: Staphylococcus epidermidis; S. epidermidis EPI1; agar dilution; read-out: MIC
Protocol: as §1

[29] = system: Staphylococcus aureus V41; assay: MIC, standard agar-dilution assay (Table V); assay type: cell-based; details: Staphylococcus aureus; S. aureus V41, penicillin-resistant strain; agar dilution; read-out: MIC
Protocol: as §1

[30] = system: Streptococcus Group 9960; assay: MIC, standard agar-dilution assay (Table V); assay type: cell-based; details: GROUP9960; Streptococcus Group 9960; agar dilution; read-out: MIC
Protocol: as §1

[31] = system: Klebsiella pneumoniae KAE; assay: MIC, standard agar-dilution assay (Table V); assay type: cell-based; details: Klebsiella pneumoniae; K. pneumoniae KAE; agar dilution; read-out: MIC
How it was run: as §5

[32] = system: Klebsiella pneumoniae X26; assay: MIC, standard agar-dilution assay (Table V); assay type: cell-based; details: Klebsiella pneumoniae, X26
Protocol: as §1

[33] = system: Staphylococcus aureus X1.1; assay: MIC, standard agar-dilution assay (Table V); assay type: cell-based; details: Staphylococcus aureus, X1.1
Protocol: as §1

[34] = system: Streptococcus pyogenes C203; assay: ED50 in mice experimentally infected with S. pyogenes C203 (Table VIII); assay type: in vivo
Protocol: The C-23 modified derivatives of OMT of this invention have shown in vivo antimicrobial activity against experimental infections. When two doses of test compound were administered to mice experimentally infected with a gram-positive bacterium, S. pyogenes C203, the activity observed was measured as an ED50 value [effective dose in mg/kg to protect 50% of the test animals: see Warren Wick, et al., J. Bacteriol. 81, 233-235 (1961)].

For CCC1OC(=O)CC(O)C(C)C(OC2OC(C)C(O)C(N(C)C)C2O)C(CC=O)CC(C)C(=O)C=CC(C)=CC1CSc1nnc(C)o1 (centres unmarked) [Compound 4], the “activity against these strains” value [1] was “did not show activity”, the MIC [2] was 0.06 µg/mL (≈ 0.0862 µM) and the “Number of deaths/number treated” value [3] was 8/10. For the same compound, the MIC [4] was 6.25 µg/mL (≈ 8.98 µM), the MIC [5] was 6.25 µg/mL (≈ 8.98 µM) and the MIC [6] was 12.5 µg/mL (≈ 18 µM). For the same compound, the MIC [7] was 3.12 µg/mL (≈ 4.48 µM), the MIC [8] was 0.39 µg/mL (≈ 0.56 µM) and the MIC [9] was 6.25 µg/mL (≈ 8.98 µM). For the same compound, the MIC [10] was 1.56 µg/mL (≈ 2.24 µM), the MIC [11] was 12.5 µg/mL (≈ 18 µM) and the MIC [12] was 6.25 µg/mL (≈ 8.98 µM). The MIC [13] was 0.39 µg/mL (≈ 0.56 µM), the MIC [14] was 12.5 µg/mL (≈ 18 µM) and the MIC [15] was 6.25 µg/mL (≈ 8.98 µM). It also gave an MIC [16] of 0.78 µg/mL (≈ 1.12 µM), an MIC [17] of 4 µg/mL (≈ 5.75 µM) and an MIC [18] of 4 µg/mL (≈ 5.75 µM). For the same compound, the MIC [19] was 32 µg/mL (≈ 46 µM), the MIC [20] was 0.25 µg/mL (≈ 0.359 µM) and the MIC [21] was 0.5 µg/mL (≈ 0.719 µM). The MIC [22] was > 128 µg/mL, the MIC [23] was 0.5 µg/mL (≈ 0.719 µM) and the MIC [24] was 0.25 µg/mL (≈ 0.359 µM). The MIC [25] was 64 µg/mL (≈ 92 µM), the MIC [26] was 0.5 µg/mL (≈ 0.719 µM) and the MIC [27] was > 128 µg/mL. For the same compound, the MIC [28] was 0.25 µg/mL (≈ 0.359 µM), the MIC [29] was 0.5 µg/mL (≈ 0.719 µM) and the MIC [30] was 0.5 µg/mL (≈ 0.719 µM). For the same compound, the MIC [31] was > 128 µg/mL, the MIC [32] was 8 µg/mL (≈ 11.5 µM) and the MIC [33] was 0.25 µg/mL (≈ 0.359 µM). For the same compound, the ED50 ([34]; C203, po, read-out: ED50, Oral) was > 100 mg/kg and the ED50 ([34]; C203, sc, mice, subcutaneous, doses given 1 and 4 hours postinfection, read-out: ED50, Subcutaneous) was 12.6 mg/kg.
